Legend:
Elovl5 (G. melas) = molecular target: T1, Elovl5 (G. melas) (Gymnachirus melas, UniProt A0A7G1GDB9); test: yeast expression, GC of FAMEs, % conversion; assay type: cell-based; settings: elongation of C18 substrate; yeast culture 48 h, 30 °C
T1 construct: full ORF in pYES2, expressed in S. cerevisiae INVSc1
T1 sequence (A0A7G1GDB9 1-294): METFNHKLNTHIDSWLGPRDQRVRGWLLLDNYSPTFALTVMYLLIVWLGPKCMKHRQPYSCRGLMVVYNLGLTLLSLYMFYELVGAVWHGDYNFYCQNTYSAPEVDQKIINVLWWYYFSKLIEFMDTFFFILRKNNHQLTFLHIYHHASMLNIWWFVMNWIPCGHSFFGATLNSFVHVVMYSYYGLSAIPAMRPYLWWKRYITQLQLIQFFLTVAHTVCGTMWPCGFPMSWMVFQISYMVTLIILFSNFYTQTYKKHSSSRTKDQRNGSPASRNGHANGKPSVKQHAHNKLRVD

Elovl5 (T. maculatus) = molecular target: T2, Elovl5 (T. maculatus) (Trinectes maculatus, UniProt A0A7G1GDF5); test: yeast expression, GC of FAMEs, % conversion; assay type: cell-based; settings: elongation of C18 substrate; yeast culture 48 h, 30 °C
T2 construct: full ORF in pYES2, expressed in S. cerevisiae INVSc1
T2 sequence (A0A7G1GDF5 1-294): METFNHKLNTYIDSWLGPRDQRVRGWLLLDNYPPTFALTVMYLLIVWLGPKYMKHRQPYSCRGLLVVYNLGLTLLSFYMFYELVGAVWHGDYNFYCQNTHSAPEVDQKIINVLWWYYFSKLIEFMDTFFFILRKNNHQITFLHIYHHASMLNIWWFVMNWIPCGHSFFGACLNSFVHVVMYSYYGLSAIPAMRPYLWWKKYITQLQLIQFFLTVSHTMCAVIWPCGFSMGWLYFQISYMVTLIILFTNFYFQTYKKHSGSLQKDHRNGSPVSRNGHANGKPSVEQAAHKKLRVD

Elovl5 (H. mentalis) = molecular target: T3, Elovl5 (H. mentalis) (Hypoclinemus mentalis, UniProt A0A7G1GDF4); test: yeast expression, GC of FAMEs, % conversion; assay type: cell-based; settings: elongation of C18 substrate; yeast culture 48 h, 30 °C
T3 construct: full ORF in pYES2, expressed in S. cerevisiae INVSc1
T3 sequence (A0A7G1GDF4 1-294): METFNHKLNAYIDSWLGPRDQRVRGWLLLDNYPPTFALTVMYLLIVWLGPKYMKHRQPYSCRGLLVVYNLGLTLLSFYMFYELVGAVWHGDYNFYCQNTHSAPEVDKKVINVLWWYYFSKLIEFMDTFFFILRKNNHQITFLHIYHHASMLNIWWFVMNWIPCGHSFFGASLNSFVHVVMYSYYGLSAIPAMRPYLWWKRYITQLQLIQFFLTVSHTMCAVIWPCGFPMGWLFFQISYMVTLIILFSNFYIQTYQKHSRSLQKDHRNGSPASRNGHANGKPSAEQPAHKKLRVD

Fads2 (A. finis) [1] = molecular target: T4, Fads2 (A. finis) (Apionichthys finis, UniProt A0A7G1GDB3); test: yeast co-expression with zebrafish Elovl2, GC of FAMEs; assay type: cell-based; design: full ORF in pYES2, expressed in S. cerevisiae INVSc1; settings: Δ6 desaturation; 24:5n-3 formed in the yeast from 22:5n-3 by zebrafish Elovl2; normalised to 18:3n-3
Fads2a (H. mentalis) = molecular target: T5, Fads2a (H. mentalis) (Hypoclinemus mentalis, UniProt A0A7G1GDA4); test: yeast expression, GC of FAMEs, % conversion; assay type: cell-based; settings: Δ6 desaturation; yeast culture 48 h, 30 °C
T5 construct: full ORF in pYES2, 442 residues, expressed in S. cerevisiae INVSc1

Fads2 (A. finis) [2] = molecular target: T4, Fads2 (A. finis); settings: Δ6 desaturation; yeast culture 48 h, 30 °C

T4 sequence (A0A7G1GDB3 entry or part of it): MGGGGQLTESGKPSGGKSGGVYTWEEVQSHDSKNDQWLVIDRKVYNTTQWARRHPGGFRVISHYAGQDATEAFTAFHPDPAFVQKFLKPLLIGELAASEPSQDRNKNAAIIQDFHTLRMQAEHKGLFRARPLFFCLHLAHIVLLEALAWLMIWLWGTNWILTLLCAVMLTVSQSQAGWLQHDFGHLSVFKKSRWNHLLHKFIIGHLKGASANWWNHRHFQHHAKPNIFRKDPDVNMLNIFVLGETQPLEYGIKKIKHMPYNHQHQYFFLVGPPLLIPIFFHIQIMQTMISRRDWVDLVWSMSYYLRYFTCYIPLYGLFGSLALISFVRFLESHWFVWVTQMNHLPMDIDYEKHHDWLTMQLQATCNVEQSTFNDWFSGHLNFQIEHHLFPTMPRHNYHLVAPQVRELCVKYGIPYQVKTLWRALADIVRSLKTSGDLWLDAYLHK
T5 sequence (A0A7G1GDA4 entry or part of it): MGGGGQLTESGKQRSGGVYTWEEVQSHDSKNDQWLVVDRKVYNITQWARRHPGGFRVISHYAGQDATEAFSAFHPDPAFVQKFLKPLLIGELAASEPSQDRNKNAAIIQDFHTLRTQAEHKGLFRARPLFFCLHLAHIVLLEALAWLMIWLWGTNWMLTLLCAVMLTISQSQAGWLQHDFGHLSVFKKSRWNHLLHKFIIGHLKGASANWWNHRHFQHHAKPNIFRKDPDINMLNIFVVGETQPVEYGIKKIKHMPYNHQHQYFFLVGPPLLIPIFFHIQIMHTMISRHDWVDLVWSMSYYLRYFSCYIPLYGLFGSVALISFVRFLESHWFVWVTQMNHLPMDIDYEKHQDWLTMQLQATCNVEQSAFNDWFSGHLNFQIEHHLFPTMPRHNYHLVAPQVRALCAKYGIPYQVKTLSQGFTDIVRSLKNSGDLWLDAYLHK

CC/C=C\C/C=C\C/C=C\C/C=C\CCCCC(=O)O [18:4n − 3]
yeast expression, GC of FAMEs, % conversion (Elovl5 (G. melas)): The G. melas Elovl5 exhibited activity towards C18 to C22 substrates
yeast expression, GC of FAMEs, % conversion (Elovl5 (T. maculatus)): The Elovl5 showed elongase activities towards C18 to C22 substrates
yeast expression, GC of FAMEs, % conversion (Elovl5 (H. mentalis)): The Elovl5 performed elongations of C18 to C22 substrates

CC/C=C\C/C=C\C/C=C\C/C=C\C/C=C\CCCCCCCC(=O)O [24:5n − 3]
yeast co-expression with zebrafish Elovl2, GC of FAMEs (Fads2 (A. finis) [1]): desaturation at the highest efficiency among the four species

CC/C=C\C/C=C\C/C=C\CCCCCCCC(=O)O [α-linolenic acid]
yeast expression, GC of FAMEs, % conversion (Fads2a (H. mentalis)): The two Fads2, namely Fads2a and Fads2b, showed distinct activities
yeast expression, GC of FAMEs, % conversion (Fads2 (A. finis) [2]): The Fads2 isolated from A. finis showed

From publication PMC7501227, “Flatfishes colonised freshwater environments by acquisition of various DHA biosynthetic pathways” (Communications Biology, 2020)
